Assay results: US9586969B2, “Microbiocidal heterobicyclic derivatives” (Syngenta Participations AG, priority 2014, dated 2017)
Like-named read-outs stand apart in the source and are kept apart here.

Assays:
[1] = system: Mycosphaerella graminicola (Septoria tritici); assay: Mycosphaerella graminicola (Septoria tritici) / liquid culture (Septoria blotch); format: cell-based; details: Zymoseptoria tritici, 96 h, read-out: disease control
Fusarium culmorum = assay: microbe, parasite or virus in culture; format: cell-based; details: 72 h, read-out: disease control
[2] = system: Botryotinia fuckeliana (Botrytis cinerea); assay: Botryotinia fuckeliana (Botrytis cinerea) / liquid culture (Gray mould); format: cell-based; details: 72 h, 200 ppm, liquid culture, 24° C., inhibition of growth determined photometrically 3-4 days after application, vs untreated control, read-out: disease control
[3] = system: Monographella nivalis (Microdochium nivale); assay: Monographella nivalis (Microdochium nivale) / liquid culture (Foot rot cereals); format: cell-based; details: 96 h, 200 ppm, liquid culture, 24° C., inhibition of growth determined photometrically 4-5 days after application, vs untreated control, read-out: disease control
[4] = system: Glomerella lagenarium (Colletotrichum lagenarium); assay: Glomerella lagenarium (Colletotrichum lagenarium) / liquid culture (Anthracnose); format: cell-based; details: Colletotrichum orbiculare; 200 ppm; liquid culture, 24° C., inhibition of growth measured photometrically 3-4 days after application; vs untreated control; read-out: disease control
Gaeumannomyces graminis = Gaeumannomyces graminis / liquid culture (Take-all of cereals); format: cell-based; details: 96 h, read-out: disease control
[5] = liquid culture, 24° C., inhibition of growth determined photometrically 4-5 days after application, vs untreated control

Row | SMILES | inhibition of growth at 200 ppm [1, 5] | inhibition of growth at 200 ppm (Fusarium culmorum) | inhibition of growth at 200 ppm [2] | inhibition of growth at 200 ppm [3] | inhibition of growth at 200 ppm [4] | inhibition of growth at 200 ppm (Gaeumannomyces graminis; [5]) | inhibition of growth at 200 ppm [1] | inhibition of growth at 200 ppm (Gaeumannomyces graminis) | melting point
1 | CC1(C)N=C(c2cnn3c(F)cc(I)c3c2)c2cccc(F)c2C1(C)C [E 24] | ≥ 80% | ≥ 80% | ≥ 80% | ≥ 80% | ≥ 80% | – | – | – | –
2 | CC1(C)N=C(c2cnn3cccc3c2)c2cccc(F)c2C1(C)C [E 1] | – | – | ≥ 80% | ≥ 80% | ≥ 80% | ≥ 80% | – | – | –
3 | CC1(C)Cc2c(I)cccc2C(c2cnn3cccc3c2)=N1 [E 29] | ≥ 80% | ≥ 80% | ≥ 80% | ≥ 80% | ≥ 80% | – | – | – | –
4 | C#Cc1cccc2c1CC(C)(C)N=C2c1cnn2c(F)ccc2c1 [E 27] | ≥ 80% | ≥ 80% | ≥ 80% | ≥ 80% | ≥ 80% | ≥ 80% | – | – | –
5 | Cc1cc(F)n2ncc(C3=NC(C)(C)Cc4c(F)cccc43)cc12 [E 18] | ≥ 80% | – | ≥ 80% | ≥ 80% | ≥ 80% | ≥ 80% | – | – | –
6 | C#CCOc1cccc2c1CC(C)(C)N=C2c1cnn2cccc2c1 [E 54] | – | – | ≥ 80% | – | – | ≥ 80% | – | – | –
7 | CC1(C)N=C(c2cnn3c(Cl)ccc3c2)c2cccc(F)c2C1(C)C [E 76] | – | ≥ 80% | – | – | – | – | ≥ 80% | ≥ 80% | –
8 | CC1(C)Cc2ccccc2C(c2cnn3c(F)ccc3c2)N1 (stereo not shown) [E 21] | – | – | ≥ 80% | – | ≥ 80% | ≥ 80% | – | – | –
9 | CC1(C)N=C(c2cnn3c(C#N)cc(Br)c3c2)c2cccc(F)c2C1(F)F [E 64, 5-bromo-3-(4,4,5-trifluoro-3,3-dimethyl-1-isoquinolyl)pyrrolo[1,2-b]pyridazine-7-carbonitrile] | – | – | – | – | – | – | – | – | 190 to 192 °C
10 | CC1(C)N=C(c2cnn3c(I)cc(I)c3c2)c2cccc(F)c2C1(C)C [E 38] | ≥ 80% | – | ≥ 80% | ≥ 80% | – | – | – | – | –
11 | CC1(C)Cc2c(F)cccc2C(c2cnn3c(Br)ccc3c2)=N1 [E 17] | – | – | ≥ 80% | ≥ 80% | ≥ 80% | ≥ 80% | – | – | –
12 | CC1(C)N=C(c2cnn3c(C#N)ccc3c2)c2cccc(F)c2C1(F)F [E 66, 3-(4,4,5-trifluoro-3,3-dimethyl-1-isoquinolyl)pyrrolo[1,2-b]pyridazine-7-carbonitrile] | – | ≥ 80% | ≥ 80% | ≥ 80% | ≥ 80% | – | – | – | 214 to 216 °C
13 | CC1(C)N=C(c2cnn3c(F)c(F)cc3c2)c2cccc(F)c2C1(C)C [E 75] | – | ≥ 80% | ≥ 80% | – | ≥ 80% | ≥ 80% | – | – | –
14 | CC1(C)N=C(c2cnn3c(Br)ccc3c2)c2cccc(F)c2C1(C)C [E 42] | – | ≥ 80% | ≥ 80% | ≥ 80% | ≥ 80% | ≥ 80% | – | – | –
15 | CC1(C)Cc2c(F)cccc2C(c2cnn3c(C#N)ccc3c2)=N1 [E 30, 3-(5-fluoro-3,3-dimethyl-4H-isoquinolin-1-yl)pyrrolo[1,2-b]pyridazine-7-carbonitrile] | ≥ 80% | ≥ 80% | ≥ 80% | ≥ 80% | ≥ 80% | ≥ 80% | – | – | 118 to 136 °C
16 | CC1(C)Cc2c(F)cccc2C(c2cnn3cccc3c2)=N1 [E 3] | ≥ 80% | ≥ 80% | ≥ 80% | ≥ 80% | ≥ 80% | ≥ 80% | – | – | –
17 | Cc1nn2c(Br)ccc2cc1C1=NC(C)(C)C(C)(C)c2c(F)cccc21 [E 84] | – | ≥ 80% | ≥ 80% | ≥ 80% | ≥ 80% | ≥ 80% | – | – | –
18 | CC1(C)Cc2c(F)cccc2C(c2cnn3c(F)cc(Br)c3c2)=N1 [E 15] | ≥ 80% | – | ≥ 80% | ≥ 80% | ≥ 80% | ≥ 80% | – | – | –
19 | CC1(C)Cc2c(Br)cccc2C(c2cnn3cccc3c2)=N1 [E 5] | ≥ 80% | ≥ 80% | ≥ 80% | ≥ 80% | ≥ 80% | – | – | – | –
20 | CC1(C)Cc2c(Oc3ccccc3)cccc2C(c2cnn3cccc3c2)=N1 [E 60] | ≥ 80% | ≥ 80% | ≥ 80% | ≥ 80% | ≥ 80% | – | – | – | –
21 | CC1(C)Cc2c(Br)cccc2C(c2cnn3c(F)ccc3c2)=N1 [E 9] | – | ≥ 80% | ≥ 80% | ≥ 80% | ≥ 80% | – | – | – | –
22 | CC1(C)Cc2c(Oc3ccccn3)cccc2C(c2cnn3cccc3c2)=N1 [E 31] | – | – | ≥ 80% | – | – | ≥ 80% | – | – | –
23 | CC1(C)N=C(c2cnn3c(F)ccc3c2)c2cccc(F)c2C1(C)C [E 2] | – | ≥ 80% | ≥ 80% | ≥ 80% | ≥ 80% | ≥ 80% | – | – | –
24 | CC1(C)N=C(c2cnn3c(C#N)ccc3c2)c2cccc(F)c2C1(C)C [E 52] | – | ≥ 80% | ≥ 80% | ≥ 80% | ≥ 80% | – | – | – | –
